Test results from BindingDB's records for doi:10.1021/jm990039i (Southern Research Institute, 1999).

Experiment: The opioid antagonist potency against PL-107 mu-opioid receptor from guinea pig ileum(GPI).Ke (nM) = [antagonist]/(IC50 ratio-1)

**Q.** For Oc1ccc2c3c1O[C@H]1c4ncc(-c5ccccc5)cc4C[C@@]4(O)[C@@H](C2)N(CC2CC2)CC[C@]314, which Ki is on record?
**A.** 42 nM
